Tested on: Maus
Test: Tail Suspension Test in the mouse
Type: in vivo
Text: Der "Tail Suspension Test" detektiert antidepressive und anxiolytische Aktivität und folgt der Methode von Porsolt et al. (Porsolt R.D., Bertin A., Jalfre M., Behaviourial despair in mice: a primary screening test for antidepressants. Arch. Int. Pharmacodyn. Ther., 229, 327-336, 1977) und Stéru et al. (Stéru L., .Chermat R., Thierry B, Simon P. The Tail Suspension Test: a new method for screening antidepressants in mice. Psychopharmacology, 85, 367-370, 1985). Nagetiere, die man am Schwanz herabhängen läßt, werden schnell immobil. Antidepressiva verringern die Dauer der Immobilität, während Tranquilantien die Dauer der Immobilität verlängern. Das Verhalten der Tiere wurde über 6 Minuten beobachtet, vorzugsweise mit einem computerisierten Gerät (Itemac-TST) entwickelt von Stéru et al. (1985) (s.o.). Mehrere Mäuse wurden parallel untersucht und die Immobilitätsdauer bestimmt. Dieser Parameter ist analog zu dem im "behavioral despair"-Test (Stéru L., Chermat R., Thierry B., Mico J.A., Lenègre A., Stéru M., Simon P. Porsolt R.D., The automated Tail Suspension Test: a computerized device which differentiates psychotropic drugs. Prog. Neuropsychopharmacol. Exp. Psychiatry, 11, 659-671, 1987) verwendeten. 10-20 Mäuse wurden pro Gruppe untersucht. […]. In diesem Verhaltensmodell führen Antidepressiva wie auch in anderen Verhaltensmodellen zu einer Verkürzung der Immobilitätsphase, während Opioide wie Morphin die Immobilitätsphase verlängern. Beim Vorhandensein beider Wirkkomponenten überlagern sich beide Effekte, so daß nur noch eine geringe Motilitätsveränderung resultiert. Das wurde dadurch aufgehoben, daß die Opiatkomponente durch Vorbehandlung mit Naloxon weggeblockt wurde. Nach der Naloxonvorbehandlung trat die stimulierende Wirkung von (1R,2R)-3-(2-Dimethylaminomethyl-cyclohexyl)-phenol, die ohne Vorbehandlung nur gering war, deutlich in Erscheinung. Darum ist die Substanz, insbesondere in Kombination mit einer Schmerztherapie sehr geeignet. Die Ergebnisse dieser Untersuchungen zusammen mit Referenzsubstanzen sind in der Tabelle 2 zusammengefaßt. Tabelle 2: Wirkung von (1R,2R)-3-(2-Dimethylaminomethyl-cyclohexyl)-phenol, Imipramin und Morphin in "Tail Suspension" Test an der Maus (10 - 20 Tiere/Gruppe)

[1] = 31,6 mg/kg i.p., 30 min before test

Compound	Imobilitätsdauer % Änderung gegenüber der Lösungsmittelkontrolle (1,0 mg/kg i.v. alone) [%]	Imobilitätsdauer % Änderung gegenüber der Lösungsmittelkontrolle [1] [%]	Imobilitätsdauer % Änderung gegenüber der Lösungsmittelkontrolle (4,64 mg/kg i.p., 30 min before test)	Imobilitätsdauer % Änderung gegenüber der Lösungsmittelkontrolle (10,0 mg/kg i.p., 30 min before test)	Imobilitätsdauer % Änderung gegenüber der Lösungsmittelkontrolle (21,5 mg/kg i.p. + 1,0 mg/kg i.v. Naloxon (pretreatment)) [%]	Imobilitätsdauer % Änderung gegenüber der Lösungsmittelkontrolle (21,5 mg/kg i.p., 30 min before test)	Imobilitätsdauer % Änderung gegenüber der Lösungsmittelkontrolle (31,6 mg/kg i.p. + 1,0 mg/kg i.v. Naloxon (pretreatment)) [%]
C=CCN1CC[C@]23c4c5ccc(O)c4O[C@H]2C(=O)CC[C@@]3(O)[C@H]1C5 [Naloxon, reference compound]	-15						
CN(C)CCCN1c2ccccc2CCc2ccccc21 [Imipramin, reference compound]		-61					
CN(C)C[C@@H]1CCCC[C@H]1c1cccc(O)c1 [(1R,2R)-3-(2-Dimethylaminomethyl-cyclohexyl)-phenol]		-13	+6%	+12%	-90	+9%	-85
